Where “and” joins values, the source holds several entries; their conditions need not be identical. Equal entries are not always repeated. Where two headings read alike, the source gives them in different places.
How the values were obtained:
[1] = cited from earlier work
[2] = test system: fresh human hepatocytes; assay: Cellular uptake of bosentan and macitentan into fresh human hepatocytes with or without transport inhibitors; assay type: in vitro ADME; conditions: 300 nM
Experimental: The cellular uptake of bosentan and macitentan was determined in fresh human hepatocytes purchased from Celsis/IVT (Baltimore, MD) or Life Technologies (Foster City, CA). Cells were pre-incubated in Krebs-Henseleit Buffer containing 5% bovine serum albumin for 30 min at 37°C prior to assay. Cells were then co-incubated in the presence and absence of an inhibitor cocktail containing 40 µM rifampicin and 5 µM of cyclosporin A for 15 min. Test compounds bosentan and macitentan were diluted to 3 fold of final target concentration in the same assay buffer and equilibrated at 37°C for 30 min. The uptake assay was initiated by adding 50 µL of test compound solution to the 48-well plate containing 100 µL cell suspension, mixed and incubated at 37°C for 30, 60 and 90 sec. Final cell density was 2×10^6 cells/mL with a final test compound concentration of 300 nM. The reaction mixture was overlaid onto pre-prepared microcentrifuge tubes containing 100 µL of 2 N NaOH (bottom layer) and 100 µL of filtration oil (middle layer; 74.5∶25.5 silicon oil:mineral oil mix) followed by centrifugation at 13,000 g for 30 sec. The samples were allowed to sit at room temperature for 2 h and then frozen at −80°C. The microcentrifuge tubes were then cut and the bottom layer containing the cell lysate collected. HCl solution was added to neutralize the solution. Samples were extracted with organic solvents for analysis by liquid chromatography coupled to tandem mass spectrometry (LC/MS/MS).

[3] = test system: murine Pgp; parameters: method as in PMID 23353592; conditions: cited from earlier work
[4] = test system: canine BCRP; parameters: method as in PMID 23353592; conditions: cited from earlier work
[5] = test system: human OATP1B1; conditions: cited from earlier work
[6] = biological target: T1, OATP1B3 (Homo sapiens, UniProt Q9NPD5); conditions: cited from earlier work
T1 construct: host or cells: CHO
T1 sequence (Q9NPD5 1-702): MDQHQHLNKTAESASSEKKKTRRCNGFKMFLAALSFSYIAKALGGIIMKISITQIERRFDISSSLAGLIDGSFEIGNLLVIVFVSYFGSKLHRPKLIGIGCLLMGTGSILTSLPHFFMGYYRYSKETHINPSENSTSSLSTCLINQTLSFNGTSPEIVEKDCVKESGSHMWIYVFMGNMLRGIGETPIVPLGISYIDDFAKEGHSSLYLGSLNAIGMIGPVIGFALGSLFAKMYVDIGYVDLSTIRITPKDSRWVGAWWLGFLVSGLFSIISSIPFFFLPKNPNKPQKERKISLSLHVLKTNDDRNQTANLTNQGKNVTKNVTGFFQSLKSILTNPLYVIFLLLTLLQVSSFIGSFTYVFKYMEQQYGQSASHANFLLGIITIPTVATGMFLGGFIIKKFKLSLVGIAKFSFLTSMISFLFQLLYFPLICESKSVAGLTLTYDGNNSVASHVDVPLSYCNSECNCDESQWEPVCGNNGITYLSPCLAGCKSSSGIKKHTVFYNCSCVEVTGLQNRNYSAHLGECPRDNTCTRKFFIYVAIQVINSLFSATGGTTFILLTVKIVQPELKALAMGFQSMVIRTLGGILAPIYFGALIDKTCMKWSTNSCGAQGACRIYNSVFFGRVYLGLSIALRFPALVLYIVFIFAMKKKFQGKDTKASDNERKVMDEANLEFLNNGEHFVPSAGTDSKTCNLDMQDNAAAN

[7] = test system: human Pgp; parameters: method as in PMID 22348175; conditions: at doses up to 50 µM, Kim et al. ref 46; cited from earlier work
[8] = parameters: method as in PMID 22189899; conditions: plasma pharmacokinetics in patients ref 36; cited from earlier work
[9] = cited from earlier work; remark: listed apart in the source
[10] = biological target: T2, BCRP (Homo sapiens, UniProt Q9UNQ0); parameters: method as in earlier work; conditions: data previously reported, similar conditions ref 35; cited from earlier work
T2 construct: host or cells: MDCKII
T2 sequence (Q9UNQ0 1-655): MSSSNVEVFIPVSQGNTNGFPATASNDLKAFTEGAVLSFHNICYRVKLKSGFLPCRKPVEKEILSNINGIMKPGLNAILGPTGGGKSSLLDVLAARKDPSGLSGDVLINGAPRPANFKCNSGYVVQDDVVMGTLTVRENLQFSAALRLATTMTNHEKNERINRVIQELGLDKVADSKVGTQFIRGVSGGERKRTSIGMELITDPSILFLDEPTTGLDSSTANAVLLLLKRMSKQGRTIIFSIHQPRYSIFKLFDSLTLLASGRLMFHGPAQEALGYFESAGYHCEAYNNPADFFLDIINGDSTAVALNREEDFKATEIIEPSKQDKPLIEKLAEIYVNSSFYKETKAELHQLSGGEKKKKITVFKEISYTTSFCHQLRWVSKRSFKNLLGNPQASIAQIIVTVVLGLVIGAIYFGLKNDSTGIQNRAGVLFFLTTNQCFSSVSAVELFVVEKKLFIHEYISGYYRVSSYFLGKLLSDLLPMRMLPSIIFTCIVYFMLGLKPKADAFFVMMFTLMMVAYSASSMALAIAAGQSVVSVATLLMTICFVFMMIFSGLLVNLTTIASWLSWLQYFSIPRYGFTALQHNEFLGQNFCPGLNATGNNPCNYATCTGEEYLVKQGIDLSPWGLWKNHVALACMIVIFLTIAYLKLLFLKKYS

[11] = biological target: T3, BSEP (Homo sapiens, UniProt O95342); parameters: method as in earlier work; conditions: data previously reported, same assay conditions ref 35; cited from earlier work
T3 construct: purchased Solvo Biotechnology, Budaors, Hungary; host or cells: Sf9 insect cells (membrane vesicles)

[12] = biological target: T4, MRP2 (Homo sapiens, UniProt Q92887); parameters: method as in earlier work; conditions: data previously reported ref 35; cited from earlier work
T4 construct: purchased Solvo Biotechnology, Budaors, Hungary; host or cells: Sf9 insect cells (membrane vesicles)

[13] = biological target: T5, Pgp (Homo sapiens, UniProt P08183); parameters: method as in earlier work; conditions: data previously reported, similar conditions ref 35; cited from earlier work
T5 construct: host or cells: MDCKII
T5 sequence (P08183 whole entry): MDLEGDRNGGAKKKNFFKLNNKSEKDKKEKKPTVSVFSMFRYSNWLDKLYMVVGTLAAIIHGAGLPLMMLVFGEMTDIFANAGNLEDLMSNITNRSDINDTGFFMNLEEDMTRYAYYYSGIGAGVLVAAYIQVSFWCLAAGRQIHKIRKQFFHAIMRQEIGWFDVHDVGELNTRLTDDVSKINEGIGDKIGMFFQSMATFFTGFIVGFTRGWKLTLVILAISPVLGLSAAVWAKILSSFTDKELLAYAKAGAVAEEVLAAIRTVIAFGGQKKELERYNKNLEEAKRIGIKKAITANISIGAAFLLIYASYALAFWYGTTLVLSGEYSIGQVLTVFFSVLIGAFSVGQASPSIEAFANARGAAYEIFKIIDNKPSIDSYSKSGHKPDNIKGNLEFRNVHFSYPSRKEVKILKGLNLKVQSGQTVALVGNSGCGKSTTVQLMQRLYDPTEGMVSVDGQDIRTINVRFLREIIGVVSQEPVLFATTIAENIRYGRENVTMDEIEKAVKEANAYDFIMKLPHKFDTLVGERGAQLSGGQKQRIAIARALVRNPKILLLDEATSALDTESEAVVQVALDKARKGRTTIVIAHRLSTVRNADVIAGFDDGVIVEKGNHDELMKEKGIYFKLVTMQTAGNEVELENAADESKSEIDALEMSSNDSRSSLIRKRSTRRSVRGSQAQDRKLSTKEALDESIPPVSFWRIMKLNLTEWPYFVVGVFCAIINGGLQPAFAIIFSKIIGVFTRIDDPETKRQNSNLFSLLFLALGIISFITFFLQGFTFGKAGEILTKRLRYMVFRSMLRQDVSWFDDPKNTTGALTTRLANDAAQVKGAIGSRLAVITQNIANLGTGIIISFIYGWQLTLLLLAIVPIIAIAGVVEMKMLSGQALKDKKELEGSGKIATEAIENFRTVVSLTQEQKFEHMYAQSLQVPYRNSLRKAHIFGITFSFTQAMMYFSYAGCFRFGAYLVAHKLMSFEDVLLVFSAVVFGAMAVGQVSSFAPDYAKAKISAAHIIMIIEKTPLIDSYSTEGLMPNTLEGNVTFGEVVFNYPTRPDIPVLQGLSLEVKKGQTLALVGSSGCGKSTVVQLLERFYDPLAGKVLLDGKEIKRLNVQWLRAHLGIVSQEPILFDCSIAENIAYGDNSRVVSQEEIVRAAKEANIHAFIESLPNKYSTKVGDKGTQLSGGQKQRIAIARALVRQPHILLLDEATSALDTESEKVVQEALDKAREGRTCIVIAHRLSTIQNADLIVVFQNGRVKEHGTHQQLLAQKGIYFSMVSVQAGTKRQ

T3 sequence (O95342 whole entry): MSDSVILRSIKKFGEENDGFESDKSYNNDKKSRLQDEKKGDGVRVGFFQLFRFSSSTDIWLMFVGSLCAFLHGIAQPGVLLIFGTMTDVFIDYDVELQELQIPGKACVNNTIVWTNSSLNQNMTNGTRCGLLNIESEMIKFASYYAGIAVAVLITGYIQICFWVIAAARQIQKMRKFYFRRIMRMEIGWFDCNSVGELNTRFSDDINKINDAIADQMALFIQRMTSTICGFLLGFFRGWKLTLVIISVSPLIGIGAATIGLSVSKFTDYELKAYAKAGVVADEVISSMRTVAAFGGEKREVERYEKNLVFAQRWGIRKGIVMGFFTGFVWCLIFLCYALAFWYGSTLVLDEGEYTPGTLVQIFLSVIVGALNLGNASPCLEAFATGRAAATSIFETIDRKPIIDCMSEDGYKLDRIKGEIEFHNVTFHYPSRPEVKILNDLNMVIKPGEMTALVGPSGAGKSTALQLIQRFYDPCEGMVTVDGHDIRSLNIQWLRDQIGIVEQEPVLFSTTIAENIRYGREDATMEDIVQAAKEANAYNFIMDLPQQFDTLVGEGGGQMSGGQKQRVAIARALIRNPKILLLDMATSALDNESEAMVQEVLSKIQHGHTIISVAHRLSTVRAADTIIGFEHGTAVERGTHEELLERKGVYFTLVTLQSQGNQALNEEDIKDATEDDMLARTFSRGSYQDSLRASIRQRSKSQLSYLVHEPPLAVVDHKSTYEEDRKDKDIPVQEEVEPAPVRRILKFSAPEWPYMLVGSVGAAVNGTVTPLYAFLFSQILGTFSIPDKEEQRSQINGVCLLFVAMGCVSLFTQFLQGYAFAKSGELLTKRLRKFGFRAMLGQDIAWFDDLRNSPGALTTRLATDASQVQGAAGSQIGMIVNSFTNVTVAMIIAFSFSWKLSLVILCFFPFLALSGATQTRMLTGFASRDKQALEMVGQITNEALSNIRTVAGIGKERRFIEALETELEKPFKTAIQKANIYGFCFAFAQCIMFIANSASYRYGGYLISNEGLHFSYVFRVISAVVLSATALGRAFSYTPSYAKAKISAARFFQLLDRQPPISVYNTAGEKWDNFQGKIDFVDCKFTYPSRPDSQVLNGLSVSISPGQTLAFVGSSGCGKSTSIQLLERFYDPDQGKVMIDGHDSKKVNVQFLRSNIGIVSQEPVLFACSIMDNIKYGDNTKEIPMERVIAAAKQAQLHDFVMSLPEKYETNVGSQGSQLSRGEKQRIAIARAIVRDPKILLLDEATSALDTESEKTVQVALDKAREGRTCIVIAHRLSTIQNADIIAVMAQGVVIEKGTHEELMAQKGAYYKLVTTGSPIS
T4 sequence (Q92887 whole entry): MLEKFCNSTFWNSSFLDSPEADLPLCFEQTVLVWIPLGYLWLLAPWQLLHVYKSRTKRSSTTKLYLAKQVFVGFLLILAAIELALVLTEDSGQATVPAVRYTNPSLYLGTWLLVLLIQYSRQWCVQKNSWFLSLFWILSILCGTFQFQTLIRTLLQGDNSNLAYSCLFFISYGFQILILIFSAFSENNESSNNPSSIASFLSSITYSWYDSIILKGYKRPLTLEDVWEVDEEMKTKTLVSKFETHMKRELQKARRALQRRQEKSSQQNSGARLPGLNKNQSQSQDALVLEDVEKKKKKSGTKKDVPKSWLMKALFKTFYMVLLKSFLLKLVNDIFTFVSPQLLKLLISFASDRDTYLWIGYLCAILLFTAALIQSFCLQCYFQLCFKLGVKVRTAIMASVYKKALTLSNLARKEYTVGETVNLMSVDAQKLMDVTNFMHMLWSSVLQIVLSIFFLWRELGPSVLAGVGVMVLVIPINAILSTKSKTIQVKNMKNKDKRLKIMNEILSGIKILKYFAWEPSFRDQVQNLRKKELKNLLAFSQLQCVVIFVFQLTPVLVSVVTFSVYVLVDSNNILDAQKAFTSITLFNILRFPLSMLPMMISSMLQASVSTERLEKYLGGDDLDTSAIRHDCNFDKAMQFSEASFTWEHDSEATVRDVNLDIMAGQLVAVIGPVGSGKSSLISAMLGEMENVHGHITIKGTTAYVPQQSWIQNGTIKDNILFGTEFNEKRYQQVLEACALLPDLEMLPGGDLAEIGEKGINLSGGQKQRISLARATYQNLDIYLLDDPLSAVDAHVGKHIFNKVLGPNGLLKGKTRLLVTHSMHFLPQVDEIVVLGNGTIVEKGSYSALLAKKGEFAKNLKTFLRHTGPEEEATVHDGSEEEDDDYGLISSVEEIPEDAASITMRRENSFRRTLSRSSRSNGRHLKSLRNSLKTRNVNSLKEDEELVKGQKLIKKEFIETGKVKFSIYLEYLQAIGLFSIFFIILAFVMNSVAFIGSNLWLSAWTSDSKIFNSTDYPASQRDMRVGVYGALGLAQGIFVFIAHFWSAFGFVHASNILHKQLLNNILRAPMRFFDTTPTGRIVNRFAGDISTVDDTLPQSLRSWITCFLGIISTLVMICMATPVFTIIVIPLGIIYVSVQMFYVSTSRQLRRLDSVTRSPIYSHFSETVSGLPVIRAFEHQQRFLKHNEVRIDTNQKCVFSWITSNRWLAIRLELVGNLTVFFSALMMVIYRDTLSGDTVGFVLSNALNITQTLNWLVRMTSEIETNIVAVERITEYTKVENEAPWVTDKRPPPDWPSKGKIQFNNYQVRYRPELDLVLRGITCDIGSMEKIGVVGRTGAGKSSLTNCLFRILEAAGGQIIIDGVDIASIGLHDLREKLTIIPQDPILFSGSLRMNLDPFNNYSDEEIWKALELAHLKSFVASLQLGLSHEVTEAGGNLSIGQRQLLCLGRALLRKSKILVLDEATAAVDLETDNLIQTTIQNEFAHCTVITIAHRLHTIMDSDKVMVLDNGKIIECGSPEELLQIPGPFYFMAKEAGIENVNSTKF

COC(c1ccccc1)(c1ccccc1)[C@H](Oc1nc(C)cc(C)n1)C(=O)O [ambrisentan]
patients with serum aminotransferase concentrations >3 times ULN ([1]; ARIES studies, n = 261 ref 11): none
incidence of elevated aminotransferase >3 times ULN ([1]; ARIES-E long-term extension, mean follow-up of 1.4 years ref 12): 1.8%

COc1ccccc1Oc1c(NS(=O)(=O)c2ccc(C(C)(C)C)cc2)nc(-c2ncccn2)nc1OCCO [bosentan]
reduction of cellular uptake in the presence of transport inhibitors ([2]; 40 µM rifampicin plus 5 µM cyclosporin A, fresh human hepatocytes): 46%
cellular uptake in the absence of transport inhibitors ([2]; fresh primary human hepatocytes, n = 4 donors): 4.6±0.7 pmol/million cells and 4.6 pmol/million cells

CCCNS(=O)(=O)Nc1ncnc(OCCOc2ncc(Br)cn2)c1-c1ccc(Br)cc1 [macitentan]
cellular uptake relative to that of bosentan ([2]; human): approximately 7 times
IC50 [3]: 4.4 µM and 4 µM
IC50 [4]: 13.2 µM and 13 µM
IC50 ([5]; Bruderer et al. ref 36, read-out: OATP1B1 IC50): 6.3 µM
IC50 ([5]; read-out: human OATP1B1 IC50): 4.4 µM
IC50 ([6]; Bruderer et al. ref 36): 11.8 µM
IC50 [6]: 10 µM
inhibition of human Pgp [7]: no inhibition
increase in macitentan exposure on coadministration with cyclosporin A [8]: 10%
increase in macitentan trough concentration on coadministration with cyclosporin A [8]: 38%
elevations >8X ULN on macitentan compared to placebo ([9]; SERAPHIN ref 19): ~5 fold
incidence of serum aminotransferase elevations >3X ULN ([9]; SERAPHIN, PAH patients, up to 103.9 weeks, placebo 4.5% ref 17, 19): 3.4%
incidence of aminotransferase elevations >8X ULN ([9]; SERAPHIN, placebo 0.4% ref 19): 2.1%

Cc1cc2c(cc1CC(=O)c1sccc1S(=O)(=O)Nc1onc(C)c1Cl)OCO2 [sitaxsentan]
IC50 [10]: > 100 µM
IC50 [11]: 25 µM
IC50 [12]: > 100 µM
IC50 [13]: > 100 µM

Reference: PMC3907537, “Evaluation of the Endothelin Receptor Antagonists Ambrisentan, Bosentan, Macitentan, and Sitaxsentan as Hepatobiliary Transporter Inhibitors and Substrates in Sandwich-Cultured Human Hepatocytes” (PLoS ONE, 2014)
